Active and inactive are the calls of the source. The calls are words filed in the database; no cut-off is given here.
Legend:
Mus musculus [1] = experiment: Anti-inflammatory activity in ICR mouse assessed as inhibition of xylene induced ear edema at 0.10 mmol/kg pretreated orally for 30 mins followed by xylene challenge measured after 2 hrs relative to control; type: functional; conditions: po
Mus musculus [2] = experiment: Anti-inflammatory activity in xylene induced ICR mouse ear edema model assessed as edema weight at 0.10 mmol/kg, po pretreated 30 mins followed by xylene challenge measured after 2 hrs (reference value: 4.07 +/- 0.51 mg); type: functional
Mus musculus [3] = experiment: Toxicity in mouse assessed as tail bleeding time at 0.50 mmol/kg, po administered 30 mins prior to tail transection measured every 30 secs (reference value: 120.5 +/- 7.9 sec); type: organism-based; conditions: in vivo
Mus musculus [4] = experiment: Toxicity in mouse assessed as tail bleeding time at 0.50 mmol/kg, po administered 45 mins prior to tail transection measured every 30 secs (reference value: 119.8 +/- 8.4 sec); type: organism-based; conditions: in vivo
Mus musculus [5] = experiment: Toxicity in mouse assessed as tail bleeding time at 0.50 mmol/kg, po administered 60 mins prior to tail transection measured every 30 secs (reference value: 120.4 +/- 7.9 sec); type: organism-based; conditions: in vivo
Mus musculus [6] = experiment: Toxicity in mouse assessed as tail bleeding time at 0.50 mmol/kg, po administered 90 mins prior to tail transection measured every 30 secs (reference value: 119.3 +/- 7.7 sec); type: organism-based; conditions: in vivo
HUVEC [7] = experiment: Protection against simulated ischemia/reperfusion injury-induced cell death in HUVEC assessed as increase in cell viability at 30 ug/ml treated for 12 hrs under normoxic condition prior to simulated ischemia for 2 hrs followed by compound washout measured 3 hrs post reperfusion; type: functional, cell-based; conditions: Homo sapiens
Mus musculus [8] = experiment: Anti-inflammatory activity in ICR mouse assessed as inhibition of xylene induced ear edema pretreated orally for 30 mins followed by xylene challenge measured after 2 hrs; type: functional
HUVEC [9] = experiment: Protection against simulated ischemia/reperfusion injury induced mitochondrial oxidative damage in HUVEC assessed as decrease in mitochondrial reactive oxygen species level at 30 ug/ml pretreated for 12 hrs followed by compound washout and subsequent ischemia simulation for 2 hrs in presence of compound prior to 3 hrs reperfusion under drug free medium by MitoProbe based confocal microscopic analysis; type: functional, cell-based; conditions: Homo sapiens
HUVEC [10] = experiment: Protection against simulated ischemia and reperfusion injury induced mitochondrial oxidative damage in HUVEC assessed as reduction in cytochrome c release at 30 ug/ml treated for 12 hrs under normoxic condition prior to simulated ischemia for 2 hrs followed by compound washout measured 3 hrs post reperfusion by MitoProbe based immuno-fluorescence assay (reference value: 71.2 +/- 4.5%); type: functional, Homo sapiens; parameters: scale not given: the % may be the effect or the level left
Rattus norvegicus [11] = experiment: (§1) Protection against ischemia/reperfusion induced Wistar rat intestinal injury model assessed as reduction in denudation of villous tips at 30 mg/kg administered as bolus dose pretreated for 5 mins followed by 12 hrs reperfusion and subsequent compound treatment at 10 mg/kg administered at 1 hr interval during reperfusion period by hematoxylin-eosin/trichrome/NADH-diaphorase staining based histopathological analysis; type: functional, organism-based
Rattus norvegicus [12] = experiment: as §1, with “ischemia/reperfusion-induced” for “ischemia/reperfusion induced”, “well-preserved glandular architecture” for “reduction in denudation of villous tips”, “addition” for “treatment”; type: functional, organism-based
Rattus norvegicus [13] = experiment: Protection against ischemia/reperfusion-induced Wistar rat intestinal injury model assessed as reduction in lipid peroxidation by measuring lipid peroxide levels at 30 mg/kg administered as bolus dose pretreated for 5 mins followed by 12 hrs reperfusion and subsequent compound addition at 10 mg/kg administered at 1 hr interval during reperfusion period measured at 1.5 to 12 hrs post reperfusion by spectrophotometric method; type: functional, organism-based
Rattus norvegicus [14] = experiment: Protection against ischemia/reperfusion-induced Wistar rat intestinal injury model assessed as effect on TNFalpha levels at 30 mg/kg administered as bolus dose pretreated for 5 mins followed by 12 hrs reperfusion and subsequent compound addition at 10 mg/kg administered at 1 hr interval during reperfusion period by ELISA (reference value: 62.9 +/- 8.7 pg/ml); type: functional
HUVEC [15] = experiment: Protection against simulated ischemia/reperfusion injury induced mitochondrial oxidative damage in HUVEC assessed as increase in tubular mitochondrial cells at 30 ug/ml pretreated for 12 hrs followed by compound washout and subsequent ischemia simulation for 2 hrs in presence of compound prior to 3 hrs reperfusion under drug free medium by MitoProbe based confocal microscopic analysis; type: functional, cell-based; conditions: Homo sapiens
Mus musculus [16] = experiment: Anti-inflammatory activity in ICR mouse assessed as inhibition of xylene induced ear edema at 0.02 mmol/kg, po pretreated for 30 mins followed by xylene challenge measured after 2 hrs; type: functional, organism-based

| SMILES | inhibition in vivo at 100 µmol/kg (Mus musculus [1]) [%] | Activity (Mus musculus [2]) [mg] | Time (Mus musculus [3]) [s] | Time (Mus musculus [4]) [s] | Time (Mus musculus [5]) [s] | Time (Mus musculus [6]) [s] | Activity (HUVEC [7]) | inhibition (Mus musculus [8]) | Activity (HUVEC [9]) | Activity (HUVEC [10]) [%] | Activity (Rattus norvegicus [11]) | Activity (Rattus norvegicus [12]) | Activity (Rattus norvegicus [13]) | Activity (Rattus norvegicus [14]) [pg/mL] | Activity (HUVEC [15]) | inhibition (Mus musculus [16]) |
| --- | --- | --- | --- | --- | --- | --- | --- | --- | --- | --- | --- | --- | --- | --- | --- | --- |
| CC1(C)CC(n2cc(CNC(=O)[C@@H](Cc3c[nH]cn3)NC(=O)[C@@H]3Cc4c([nH]c5ccccc45)CN3C(=O)[C@@H]3Cc4c([nH]c5ccccc45)CN3)nn2)CC(C)(C)N1[O] | 48.6 | 2.09 | 119 | 120.5 | 119.5 | 118 | – | – | – | – | – | – | – | – | – | – |
| CC1(C)CC(n2cc(CNC(=O)[C@@H](CCCCN)NC(=O)[C@@H]3Cc4c([nH]c5ccccc45)CN3C(=O)[C@@H]3Cc4c([nH]c5ccccc45)CN3)nn2)CC(C)(C)N1[O] | 57 | 1.75 | 121.4 | 119.8 | 120.5 | 118.5 | Active | Dose-dependent effect | – | – | – | – | – | – | – | – |
| CC1(C)CC(n2cc(CNC(=O)[C@@H](CCCNC(=N)N([N+](=O)[O-])[N+](=O)[O-])NC(=O)[C@@H]3Cc4c([nH]c5ccccc45)CN3C(=O)[C@@H]3Cc4c([nH]c5ccccc45)CN3)nn2)CC(C)(C)N1[O] | 63.1 | 1.5 | 121.8 | 120.2 | 119.8 | 119.7 | Active | Dose-dependent effect | – | – | – | – | – | – | – | – |
| CC1(C)CC(n2cc(CNC(=O)[C@@H](CCC(N)=O)NC(=O)[C@@H]3Cc4c([nH]c5ccccc45)CN3C(=O)[C@@H]3Cc4c([nH]c5ccccc45)CN3)nn2)CC(C)(C)N1[O] | 47.7 | 2.13 | 117.4 | 119.6 | 120.6 | 119.3 | – | – | – | – | – | – | – | – | – | – |
| CC1(C)CC(n2cc(CNC(=O)[C@H]3CCCN3C(=O)[C@@H]3Cc4c([nH]c5ccccc45)CN3C(=O)[C@@H]3Cc4c([nH]c5ccccc45)CN3)nn2)CC(C)(C)N1[O] | 43.2 | 2.31 | 119.9 | 119.5 | 121.4 | 119.7 | – | – | – | – | – | – | – | – | – | – |
| CC1(C)CC(n2cc(CNC(=O)C[C@@H](NC(=O)[C@@H]3Cc4c([nH]c5ccccc45)CN3C(=O)[C@@H]3Cc4c([nH]c5ccccc45)CN3)C(=O)NCc3cn(C4CC(C)(C)N([O])C(C)(C)C4)nn3)nn2)CC(C)(C)N1[O] | 76.7 | 0.95 | 116.3 | 118.2 | 119.3 | 120.5 | Active | Dose-dependent effect | Active | 29.8 | Active | Active | Active | 21.7 | Active | Active |
| CSCC[C@@H](NC(=O)[C@@H]1Cc2c([nH]c3ccccc23)CN1C(=O)[C@@H]1Cc2c([nH]c3ccccc23)CN1)C(=O)NCc1cn(C2CC(C)(C)N([O])C(C)(C)C2)nn1 | 43.5 | 2.3 | 119.3 | 118.4 | 119.6 | 117.9 | – | – | – | – | – | – | – | – | – | – |
| CC1(C)CC(n2cc(CNC(=O)CNC(=O)[C@@H]3Cc4c([nH]c5ccccc45)CN3C(=O)[C@@H]3Cc4c([nH]c5ccccc45)CN3)nn2)CC(C)(C)N1[O] | 34.7 | 2.65 | 117.7 | 114.5 | 116.4 | 115.8 | – | – | – | – | – | – | – | – | – | – |
| CC1(C)CC(n2cc(CNC(=O)[C@@H](Cc3c[nH]c4ccccc34)NC(=O)[C@@H]3Cc4c([nH]c5ccccc45)CN3C(=O)[C@@H]3Cc4c([nH]c5ccccc45)CN3)nn2)CC(C)(C)N1[O] | 50.4 | 2.02 | 119.4 | 120.3 | 121.8 | 117.3 | – | – | – | – | – | – | – | – | – | – |

From ChEMBL document CHEMBL4028817, “Indole-TEMPO conjugates alleviate ischemia-reperfusion injury via attenuation of oxidative stress and preservation of mitochondrial function” (Bioorg Med Chem, 2017)
